Measured values from patent US20140193827A1 (TEVA PHARMACEUTICAL INDUSTRIES, LTD., priority 2013, published 2014).

System: GA-primed murine splenocytes
Assay: Tolerance method for assessing process variability

Substance: glatiramer acetate [GA]
- AVG expression D8ERTD82E (probe ILMN_2731237): 8.974
- AVG expression MYO1F (probe ILMN_2731760): 8.593
- AVG expression CDC42EP3 (probe ILMN_2733185): 8.258
- AVG expression TLR2 (probe ILMN_2733733): 8.191
- AVG expression IL4I1 (probe ILMN_2733778): 13.39
- AVG expression CD1D1 (probe ILMN_2734212): 8.262
- AVG expression RAMP1 (probe ILMN_2734391): 7.212
- AVG expression ISG20 (probe ILMN_2735615): 8.139
- AVG expression IL4RA (probe ILMN_2738433): 6.897
- AVG expression PDE2A (probe ILMN_2740407): 6.704
- AVG expression NDRG3 (probe ILMN_2740628): 7.26
- AVG expression IL17F (probe ILMN_2741201): 9.282
- AVG expression NUPR1 (probe ILMN_2742042): 7.513
- AVG expression CSRP3 (probe ILMN_2742068): 7.26
- AVG expression SERPINA3F (probe ILMN_2742861): 9.63
- AVG expression MATK (probe ILMN_2743902): 6.954
- AVG expression GADD45G (probe ILMN_2744890): 10.65
- AVG expression DOCK10 (probe ILMN_2749063): 7.866
- AVG expression CSF2 (probe ILMN_2749412): 7.94
- AVG expression SPATA13 (probe ILMN_2751037): 10.49
- AVG expression 4931429111RIK (probe ILMN_2751111): 6.944
- AVG expression PHXR4 (probe ILMN_2751603): 8.973
- AVG expression 2210010N04RIK (probe ILMN_2752436): 7.364
- AVG expression TGTP (probe ILMN_2754158): 7.894
- AVG expression LTF (probe ILMN_2754364): 8.257
- AVG expression CD84 (probe ILMN_2754698): 9.661
- AVG expression FFAR2 (probe ILMN_2756046): 9.337
- AVG expression D7BWG0611E (probe ILMN_2756438): 6.424
- AVG expression ENO3 (probe ILMN_2757569): 8.71
- AVG expression BC031353 (probe ILMN_2757807): 9.011
- AVG expression PRTN3 (probe ILMN_2758029): 6.472
- AVG expression SYPL (probe ILMN_2758720): 11.58
- AVG expression TMEM66 (probe ILMN_2758878): 8.06
- AVG expression CLIC4 (probe ILMN_2761109): 11.63
- AVG expression LOC100041103 (probe ILMN_2761720): 7.612
- AVG expression TBX21 (probe ILMN_2762983): 8.48
- AVG expression BC032203 (probe ILMN_2763739): 10.17
- AVG expression ASB2 (probe ILMN_2765759): 8.795
- AVG expression CAMP (probe ILMN_2766604): 8.176
- AVG expression OCIAD2 (probe ILMN_2766875): 6.716
- AVG expression ATP1B1 (probe ILMN_2767615): 7.592
- AVG expression IFI30 (probe ILMN_2767918): 10.97
- AVG expression PIK3IP1 (probe ILMN_2769772): 7.746
- AVG expression TIMP1 (probe ILMN_2769918): 6.577
- AVG expression LOC100044439 (probe ILMN_2770066): 9.229
- AVG expression IGH-VJ558 (probe ILMN_2772264): 10.58
- AVG expression GLIPR2 (probe ILMN_2773900): 10.63
- AVG expression HSD11B1 (probe ILMN_2774160): 8.176
- AVG expression STFA1 (probe ILMN_2774410): 8.3801
- AVG expression HIST1H1C (probe ILMN_2774537): 8.165
- AVG expression SPO11 (probe ILMN_2777019): 6.908
- AVG expression GCAT (probe ILMN_2777696): 8.955
- AVG expression H2-DMA (probe ILMN_2777769): 12.53
- AVG expression LTA (probe ILMN_2780247): 8.582
- AVG expression CSRP3 (probe ILMN_2789650): 7.602
- AVG expression CD177 (probe ILMN_2789900): 6.628
- AVG expression IFNG (probe ILMN_2791459): 9.711
- AVG expression RFTN2 (probe ILMN_2795178): 7.218
- AVG expression IL12RB1 (probe ILMN_2799452): 7.405
- AVG expression S100A9 (probe ILMN_2803674): 11.05
- AVG expression TMEM108 (probe ILMN_2804559): 7.473
- AVG expression PRM1 (probe ILMN_2806549): 6.894
- AVG expression ACOT7 (probe ILMN_2807084): 9.352
- AVG expression 3110001A13RIK (probe ILMN_2807335): 8.958
- AVG expression PPIC (probe ILMN_2810882): 8.651
- AVG expression LBH (probe ILMN_2816180): 11.09
- AVG expression CPNE4 (probe ILMN_2818246): 7.052
- AVG expression DUSP10 (probe ILMN_2818964): 8.287
- AVG expression SC4MOL (probe ILMN_2823778): 9.801
- AVG expression USP28 (probe ILMN_2828768): 7.665
- AVG expression C330023M02RIK (probe ILMN_2833243): 9.988
- AVG expression C330023M02RIK (probe ILMN_2833248): 8.672
- AVG expression BRWD1 (probe ILMN_2834573): 7.683
- AVG expression EG634650 (probe ILMN_2837493): 6.736
- AVG expression ACTN1 (probe ILMN_2844996): 9.845
- AVG expression PSAP (probe ILMN_2845080): 11.88
- AVG expression KLHDC2 (probe ILMN_2845272): 12.06
- AVG expression ACTB (probe ILMN_2846865): 9.645
- AVG expression HIF1A (probe ILMN_2852034): 7.906
- AVG expression TSPAN32 (probe ILMN_2852672): 9.543
- AVG expression HIST1H1C (probe ILMN_2855315): 8.506
- AVG expression GPR114 (probe ILMN_2856926): 9.59
- AVG expression GBP6 (probe ILMN_2860645): 9.559
- AVG expression GBP6 (probe ILMN_2860649): 8.264
- AVG expression RHOD (probe ILMN_2862379): 6.304
- AVG expression FCER1A (probe ILMN_2863390): 7.15
- AVG expression OTTMUSG00000000971 (probe ILMN_2864309): 7.999
- AVG expression CD83 (probe ILMN_2865016): 12.24
- AVG expression GLDC (probe ILMN_2873750): 6.771
- AVG expression LYZ (probe ILMN_2878071): 10.5
- AVG expression TMEM66 (probe ILMN_2881296): 9.558
- AVG expression LRRK2 (probe ILMN_2883267): 9.942
- AVG expression PIRA3 (probe ILMN_2883326): 7.604
- AVG expression CCR5 (probe ILMN_2888191): 7.88
- AVG expression NSG2 (probe ILMN_2890515): 6.466
- AVG expression RGS1 (probe ILMN_2897891): 8.707
- AVG expression ATP2A3 (probe ILMN_2900462): 10.34
- AVG expression GM484 (probe ILMN_2903169): 7.045
- AVG expression GADD45G (probe ILMN_2903945): 12.68
- AVG expression ICOS (probe ILMN_2906430): 9.445
- AVG expression FCGRT (probe ILMN_2917497): 7.496
- AVG expression SCD2 (probe ILMN_2919259): 7.493
- AVG expression SLC25A1 (probe ILMN_2919263): 9.787
- AVG expression OSM (probe ILMN_2919411): 9.631
- AVG expression CASP6 (probe ILMN_2923865): 9.522
- AVG expression MPO (probe ILMN_2925094): 6.333
- AVG expression SIGLECH (probe ILMN_2928599): 6.936
- AVG expression 9130211I03RIK (probe ILMN_2930552): 7.36
- AVG expression IL4 (probe ILMN_2931334): 8.425
- AVG expression TPI1 (probe ILMN_2932359): 11.19
- AVG expression LYZS (probe ILMN_2939681): 6.97
- AVG expression DGKA (probe ILMN_2940446): 10.5
- AVG expression 4933439C20RIK (probe ILMN_2944601): 9.853
- AVG expression HP (probe ILMN_2944824): 8.175
- AVG expression RAgenericEF4 (probe ILMN_2945940): 7.203
- AVG expression CBX7 (probe ILMN_2947234): 7.729
- AVG expression ECM1 (probe ILMN_2947526): 10.05
- AVG expression NOC4L (probe ILMN_2957862): 9.678
- AVG expression CYP27A1 (probe ILMN_2960108): 6.166
- AVG expression CYP27A1 (probe ILMN_2960114): 6.441
- AVG expression H2-M2 (probe ILMN_2964185): 6.649
- AVG expression CREM (probe ILMN_2964986): 7.2
- AVG expression FXYD5 (probe ILMN_2967266): 11.61
- AVG expression AMPD1 (probe ILMN_2971142): 6.076
- AVG expression FCRLA (probe ILMN_2971171): 10.49
- AVG expression BLK (probe ILMN_2976440): 10.05
- AVG expression BLK (probe ILMN_2976441): 10.82
- AVG expression MAN2A2 (probe ILMN_2977791): 6.779
- AVG expression TMED8 (probe ILMN_2979248): 8.811
- AVG expression D12ERTD553E (probe ILMN_2983525): 9.137
- AVG expression EMP3 (probe ILMN_2984744): 11.52
- AVG expression SLC15A3 (probe ILMN_2987709): 10.2
- AVG expression STFA1 (probe ILMN_2988931): 7.963
- AVG expression CLEC4N (probe ILMN_2993314): 7.76
- AVG expression OBFC2A (probe ILMN_2996904): 7.798
- AVG expression IL27RA (probe ILMN_3002095): 10.52
- AVG expression UNC84B (probe ILMN_3004864): 10.87
- AVG expression PPA1 (probe ILMN_3005441): 12.45
- AVG expression ASNS (probe ILMN_3006123): 7.885
- AVG expression MLKL (probe ILMN_3006767): 8.575
- AVG expression ABHD14B (probe ILMN_3007862): 7.744
- AVG expression FAM169B (probe ILMN_3014674): 10.41
- AVG expression CYP4F18 (probe ILMN_3018445): 6.343
- AVG expression KIF1B (probe ILMN_3034877): 7.209
- AVG expression GBP2 (probe ILMN_3047389): 7.888
- AVG expression GLIPR2 (probe ILMN_3053593): 11.06
- AVG expression WARS (probe ILMN_3077377): 7.701
- AVG expression AHNAK (probe ILMN_3079919): 7.509
- AVG expression CYP4F18 (probe ILMN_3090207): 7.952
- AVG expression PKIB (probe ILMN_3094853): 9.029
- AVG expression TNFRSF9 (probe ILMN_3103746): 8.744
- AVG expression TIMP1 (probe ILMN_3103896): 6.734
- AVG expression CETN4 (probe ILMN_3105936): 7.334
- AVG expression TXNIP (probe ILMN_3112873): 10.81
- AVG expression HSD11B1 (probe ILMN_3115917): 8.516
- AVG expression CHI3L3 (probe ILMN_3117876): 7.418
- AVG expression LMNA (probe ILMN_3121891): 8.355
- AVG expression GBP2 (probe ILMN_3122961): 13.72
- AVG expression CD27 (probe ILMN_3128992): 10.96
- AVG expression BC004728 (probe ILMN_3130403): 9.315
- AVG expression BCAT1 (probe ILMN_3131478): 9.235
- AVG expression USP18 (probe ILMN_3131679): 9.931
- AVG expression YPEL3 (probe ILMN_3132898): 12.77
- AVG expression ANXA3 (probe ILMN_3135781): 7.965
- AVG expression SESN1 (probe ILMN_3136744): 9.838
- AVG expression LIF (probe ILMN_3137287): 6.404
- AVG expression LIF (probe ILMN_3137291): 6.545
- AVG expression BTBD11 (probe ILMN_3139253): 6.574
- AVG expression SEPP1 (probe ILMN_3141048): 6.844
- AVG expression CXCL10 (probe ILMN_3142803): 8.707
- AVG expression B3GNT8 (probe ILMN_3149776): 7.035
- AVG expression NACC2 (probe ILMN_3153982): 7.11
- AVG expression WARS (probe ILMN_3156343): 8.996
- AVG expression SYTL3 (probe ILMN_3157081): 7.084
- AVG expression PRR7 (probe ILMN_3162239): 7.209
